# Source: US7691889B2, “Antimycobacterial compounds” (Lupin Limited, priority 2002, dated 2010)
# Test system: M. tuberculosis clinical isolates, resistant
# Assay: microbe, parasite or virus in culture
# Format: cell-based, Mycobacterium tuberculosis
# Settings: Mycobacterium tuberculosis, read-out: MIC against Clinical isolates Resistant
row,Molecule,MIC [µg/mL]
1,"CC(=O)NC[C@H]1CN(c2ccc(N3CCOCC3)c(F)c2)C(=O)O1 [Linezolid, (S)-N-[[3-[3-fluoro-4-(4-morpholinyl)phenyl]-2-oxo-5-oxazolidin-yl]methyl]-acetamide, reference compound]",1 to 2
2,"O=C(CCC(=O)c1ccc(Cl)cc1)NC[C@H]1CN(c2ccc(-c3nc[nH]n3)c(F)c2)C(=O)O1 [Compound 49, (S)-N-[[3-(3-fluoro-4-(1,2,4-triazolyl)phenyl)-2-oxo-5-oxazolidinyl]methyl]-4-(4-chlorophenyl)-4-oxobutanamide]",4 to 16
3,"Cc1ccc(C(=O)CCC(=O)NC[C@H]2CN(c3ccc(-c4nc[nH]n4)c(F)c3)C(=O)O2)c(C)c1 [Compound 43, (S)-N-[[3-(3-fluoro-4-(1,2,4-triazolyl)phenyl)-2-oxo-5-oxazolidinyl]methyl]-4-(2,4-dimethylphenyl)-4-oxobutanamide]",1 to 2
4,"O=C(CCC(=O)c1cccs1)NC[C@H]1CN(c2ccc(-c3nc[nH]n3)c(F)c2)C(=O)O1 [Compound 47, (S)-N-[[3-(3-fluoro-4-(1,2,4-triazolyl)phenyl)-2-oxo-5-oxazolidinyl]methyl]-4-oxo-4-(2-thienyl)butanamide]",2 to 4
5,"CCCc1ccc(C(=O)CCC(=O)NC[C@H]2CN(c3ccc(-c4nc[nH]n4)c(F)c3)C(=O)O2)c(C)c1 [Compound 46, (S)-N-[[3-(3-fluoro-4-(1,2,4-triazolyl)phenyl)-2-oxo-5-oxazolidinyl]methyl]-4-(2′-methyl-4-propylphenyl)-4-oxobutanamide]",2 to 8
6,"CC(=O)Nc1ccc(C(=O)CCC(=O)NC[C@H]2CN(c3ccc(-c4nc[nH]n4)c(F)c3)C(=O)O2)cc1 [Compound 50, (S)-N-[[3-(3-fluoro-4-(1,2,4-triazolyl)phenyl)-2-oxo-5-oxazolidinyl]methyl]-4-(4-acetamidophenyl)-4-oxobutanamide]",2 to 4
7,"O=C(CCC(=O)c1ccc2ccccc2c1)NC[C@H]1CN(c2ccc(-c3nc[nH]n3)c(F)c2)C(=O)O1 [Compound 48, (S)-N-[[3-(3-fluoro-4-(1,2,4-triazolyl)phenyl)-2-oxo-5-oxazolidinyl]methyl]-4-(2-naphthyl)-4-oxobutanamide]",2 to 8

# Same assay, conditions: Table I; agar dilution
row,Molecule,MIC against Clinical isolates Resistant
1,"CC(=O)Nc1ccc(C(=O)CCC(=O)NC[C@H]2CN(c3ccc(N4CCCCC4)c(F)c3)C(=O)O2)cc1 [Compound 54, (S)-N-[[3-(3-fluoro-4-piperidylphenyl)-2-oxo-5-oxazolidinyl]methyl]-4-(4-acetamidophenyl)-4-oxobutanamide]",>16 µg/mL
2,"(S)-N-[[3-(3-fluoro-4-morpholinylphenyl)-2-oxo-5-oxazolidinyl]methyl]-4-[4-(2′,2′-dimethyl-4-ethylphenyl)-4-oxobutanamide [Compound 20]",2 to 4 µg/mL
3,"O=C(CCC(=O)c1ccc2ccccc2c1)NC[C@H]1CN(c2ccc([N+]3([O-])CCOCC3)c(F)c2)C(=O)O1 [Compound 30, (S)-N-[[3-(3-fluoro-4-morpholinylphenyl)-2-oxo-5-oxazolidinyl]methyl]-4-(4-2-naphthyl)-4-oxobutanamide-N-oxide]",0.5 to 2 µg/mL
4,"O=C(CCC(=O)c1cccs1)NC[C@H]1CN(c2ccc(N3CCOCC3)c(F)c2)C(=O)O1 [Compound 19, (S)-N-[[3-(3-fluoro-4-morpholinylphenyl)-2-oxo-5-oxazolidinyl]methyl]-4-oxo-4-(2-thienyl)butanamide]",2 µg/mL
5,"O=C(CCC(=O)c1ccccc1)NC[C@H]1CN(c2ccc(N3CCOCC3)c(F)c2)C(=O)O1 [Compound 1, (S)-N-[[3-(3-fluoro-4-morpholinylphenyl)-2-oxo-5-oxazolidinyl]methyl]-4-oxo-4-phenylbutanamide]",>16 µg/mL
6,"O=C(C=CC(=O)c1ccccc1)NC[C@H]1CN(c2ccc(N3CCOCC3)c(F)c2)C(=O)O1 [Compound 34, (S)-N-[[3-(3-fluoro-4-morpholinylphenyl)-2-oxo-5-oxazolidinyl]methyl]-4-oxo-4-phenylbut-2-enamide]",>16 µg/mL
7,"O=C(CCC(=O)c1ccc(Cl)cc1)NC[C@H]1CN(c2ccc(N3CCCCC3)c(F)c2)C(=O)O1 [Compound 36, (S)-N-[[3-(3-fluoro-4-piperidylphenyl)-2-oxo-5-oxazolidinyl]methyl]-4-(4-chlorophenyl)-4-oxobutanamide]",4 to 8 µg/mL
8,"O=C(CCC(=O)c1ccc2ccccc2c1)NC[C@H]1CN(c2ccc(N3CCOCC3)c(F)c2)C(=O)O1 [Compound 16, (S)-N-[[3-(3-fluoro-4-morpholinylphenyl)-2-oxo-5-oxazolidinyl]methyl]-4-(4-2-naphthyl)-4-oxobutanamide]",0.5(>16) μg/ml
9,"Cc1ccc(C(=O)CCC(=O)NC[C@H]2CN(c3ccc(N4CCOCC4)c(F)c3)C(=O)O2)cc1 [Compound 2, (S)-N-[[3-(3-fluoro-4-morpholinylphenyl)-2-oxo-5-oxazolidinyl]methyl]-4-(4-methylphenyl)-4-oxobutanamide]",8 µg/mL
10,"O=C(CCC(=O)c1cccs1)NC[C@H]1CN(c2ccc([N+]3([O-])CCOCC3)c(F)c2)C(=O)O1 [Compound 31, (S)-N-[[3-(3-fluoro-4-morpholinylphenyl)-2-oxo-5-oxazolidinyl]methyl]-4-oxo-4-(2-thienyl)butanamide-N-oxide]",1 to 4 µg/mL
11,"O=C(CCC(=O)c1ccc(Cl)cc1)NC[C@H]1CN(c2ccc(-n3nnc4ccccc43)c(F)c2)C(=O)O1 [Compound 39, (S)-N-[[3-(3-fluoro-4-benzotriazolylphenyl)-2-oxo-5-oxazolidinyl]methyl]-4-(4-chlorophenyl)-4-oxobutanamide]",2 to 8 µg/mL
12,CC(C)Cc1ccc(C(=O)CCC(=O)NC[C@H]2CN(c3ccc(N4CCOCC4)c(F)c3)C(=O)O2)cc1 [Compound 17],0.5 to 1.0 µg/mL
13,"O=C(CCC(=O)c1ccccc1)NC[C@H]1CN(c2ccc(N3CCSCC3)c(F)c2)C(=O)O1 [Compound 8, (S)-N-[[3-(3-fluoro-4-thiomorpholinylphenyl)-2-oxo-5-oxazolidinyl]methyl]-4-oxo-4-phenylbutanamide]",2 to 4 µg/mL
14,"O=C(C=CC(=O)c1ccccc1)NC[C@H]1CN(c2ccc(N3CCCCC3)c(F)c2)C(=O)O1 [Compound 55, (S)-N-[[3-(3-fluoro-4-piperidylphenyl)-2-oxo-5-oxazolidinyl]methyl]-4-oxo-4-phenylbut-2-enamide]",>16 µg/mL
15,"(S)-N-[[3-(3-fluoro-4-(1,2,4-triazolyl)phenyl)-2-oxo-5-oxazolidinyl]methyl]-4-oxo-4-phenylbutanamide [Compound 40]",1 to 2 µg/mL
16,"COc1ccc(C(=O)CCC(=O)NC[C@H]2CN(c3ccc(N4CCOCC4)c(F)c3)C(=O)O2)cc1 [Compound 13, (S)-N-[[3-(3-fluoro-4-morpholinylphenyl)-2-oxo-5-oxazolidinyl]methyl]-4-(4-methoxyphenyl)-4-oxobutanamide]",2 to 4 µg/mL
17,"CSc1ccc(C(=O)CCC(=O)NC[C@H]2CN(c3ccc(N4CCCC4)c(F)c3)C(=O)O2)cc1 [Compound 56, (S)-N-[[3-(3-fluoro-4-pyrrolidinylphenyl)-2-oxo-5-oxazolidinyl]methyl]-4-oxo-4-(4-thiomethylphenyl)butanamide]",>16 µg/mL
18,"CSc1ccc(C(=O)CCC(=O)NC[C@H]2CN(c3ccc(N4CCOCC4)c(F)c3)C(=O)O2)cc1 [Compound 21, (S)-N-[[3-(3-fluoro-4-morpholinylphenyl)-2-oxo-5-oxazolidinyl]methyl]-4-oxo-4-(4-thiomethyl)phenylbutanamide]",0.5(>16) μg/ml
19,"(S)-N-[[3-(3-fluoro-4-(1,2,4-triazolyl)phenyl)-2-oxo-5-oxazolidinyl]methyl]-4-(2′,2′-dimethyl-4-ethylphenyl)-4-oxobutanamide [Compound 45]",2 to 4 µg/mL
20,"O=C(CCC(=O)c1cccs1)NC[C@H]1CN(c2ccc(N3CCCC3)c(F)c2)C(=O)O1 [Compound 28, (S)-N-[[3-(3-fluoro-4-pyrrolidinylphenyl)-2-oxo-5-oxazolidinyl]methyl]-4-oxo-4-(2-thienyl)butanamide]",2 to 8 µg/mL
21,"Cc1ccc(C(=S)CCC(=O)NC[C@H]2CN(c3ccc(N4CCOCC4)c(F)c3)C(=O)O2)cc1 [Compound 15, (S)-N-[[3-(3-fluoro-4-morpholinylphenyl)-2-oxo-5-oxazolidinyl]methyl]-4-(4-methylphenyl)-4-thiooxobutanamide]",>16 µg/mL
22,"O=C(CCC(=O)c1ccc2ccccc2c1)NC[C@H]1CN(c2ccc(N3CCCC3)c(F)c2)C(=O)O1 [Compound 57, (S)-N-[[3-(3-fluoro-4-pyrrolidinylphenyl)-2-oxo-5-oxazolidinyl]methyl]-4-(2-naphthyl)-4-oxobutanamide]",>16 µg/mL
23,"CSc1ccc(C(=O)CCC(=O)NC[C@H]2CN(c3ccc(-n4cncn4)c(F)c3)C(=O)O2)cc1 [Compound 44, (S)-N-[[3-(3-fluoro-4-(1,2,4-triazolyl)phenyl)-2-oxo-5-oxazolidinyl]methyl]-4-oxo-4-(4-thiomethylphenyl)butanamide]",1 to 4 µg/mL
24,CC(C)Cc1ccc(C(=O)CCC(=O)NC[C@H]2CN(c3ccc([N+]4([O-])CCOCC4)c(F)c3)C(=O)O2)cc1 [Compound 33],0.5 to 2 µg/mL
25,"COc1ccc(C(=O)CCC(=O)NC[C@H]2CN(c3ccc(N4CCCCC4)c(F)c3)C(=O)O2)cc1 [Compound 35, (S)-N-[[3-(3-fluoro-4-piperidylphenyl)-2-oxo-5-oxazolidinyl]methyl]-4-(4-methoxyphenyl)-4-oxobutanamide]",4 to 8 µg/mL
26,"Cc1ccc(C(=O)CCC(=O)NC[C@H]2CN(c3ccc(-n4nnc5ccccc54)c(F)c3)C(=O)O2)c(C)c1 [Compound 27, (S)-N-[[3-(3-fluoro-4-benzotriazolylphenyl)-2-oxo-5-oxazolidinyl]methyl]-4-(2,4-dimethylphenyl)-4-oxobutanamide]",>16 µg/mL

# Same assay, conditions: Table II
row,Molecule,MIC M. tuberculosis Resistant [µg/mL]
1,"O=C(CCC(=O)c1ccc2ccccc2c1)NC[C@H]1CN(c2ccc([N+]3([O-])CCOCC3)c(F)c2)C(=O)O1 [Compound 30, (S)-N-[[3-(3-fluoro-4-morpholinylphenyl)-2-oxo-5-oxazolidinyl]methyl]-4-(4-2-naphthyl)-4-oxobutanamide-N-oxide]",0.50 to 2.0
